Where two headings read alike, the source gives them in different places.
Assays:
[1] = tested on: Bone Marrow Macrophages (BMMs); assay: Cytokine mRNA and secretion in LPS-treated bone marrow macrophages; format: cell-based, mouse
[2] = Leptin injection in ob/ob mice: norepinephrine, cAMP and HDAC4 in adipose
[3] = Glucose and insulin tolerance testing in HFD-fed mice; format: in vivo; details: rolipram 7 days
Description: For HFD studies, 6-week-old mice were transferred to a 60% HFD (Research Diets, D12492) for 4 to 12 weeks as indicated. Magnetic resonance imaging scans for fat and lean mass were performed using an Echo MRI-100 instrument according to the manufacturer's instructions. For metabolic cage studies, mice were individually housed for at least 2 days. Food intake, total activity, oxygen consumption and carbon dioxide production were simultaneously measured for individually housed mice with a LabMaster system (TSE Systems). Data were collected for 2-3 days and analyzed. For glucose tolerance testing, mice were fasted for 16 h and then injected i.p. with glucose (1.5 g/kg). For insulin tolerance testing, mice were fasted 2 h and injected i.p. with insulin (Humulin; 1 U/kg). Rolipram (5 mg/kg/day) was injected i.p. for 7 days. Blood was collected from the tail vein and glucose levels were measured with a One Touch Ultra Glucometer (Johnson & Johnson).

[4] = LPS-induced sepsis: survival and circulating cytokines; format: in vivo, mice; details: for effect on survival after LPS: wild-type/control mice
Description: Cytokine and Metabolite Analysis: Mice were injected with LPS (30 mg/kg) with or without Rolipram (5 mg/kg for 16 hours (h) and serum was obtained through cardiac puncture. BMMs were stimulated with LPS (10 ng/ml) with or without PGE2 (100 nM) for 16 hr and supernatant was collected.
All mice were housed in colony cages with a 12 hr light/dark cycle in a temperature-controlled environment. For LPS-induced sepsis, mice were injected intraperitoneally with 30 mg/kg LPS or PBS (UT). Survival after LPS was monitored. For studies with KO mice, age-matched wild-type littermates were employed as controls.

NF-κB subunit p65 = assay: NF-κB signalling, immunoblot and ChIP in LPS-treated BMMs; format: cell-based, mouse
Description: Bone marrow macrophage cells (BMMs) were prepared from mouse bone marrow cells as described ([…] and Porse, 2008). BMMs were plated in 150-mm plates and exposed to LPS (10 ng/ml) with or without PGE2 (100 nM) for 1 hr. ChIP assays were performed as described (Screaton et al., 2004). RNA was isolated by RNeasy kit (Qiagen).

HDAC4 = HDAC4 dephosphorylation and localization in BMMs; format: cell-based, mouse; details: wild-type BMMs, PGE2 in combination with LPS
Description: Bone marrow macrophage cells (BMMs) were prepared from mouse bone marrow cells as described (Weischenfeldt and Porse, 2008).

histone deacetylase = details: Yoshida et al., 1990; read-out: Ki, inhibitor of histone deacetylase; cited from earlier work

cholera toxin
cytokine gene expression [1]: lowered

CN[C@@H]1C[C@H]2O[C@@](C)([C@@H]1OC)n1c3ccccc3c3c4c(c5c6ccccc6n2c5c31)C(=O)NC4 [staurosporine]
cytokine gene expression ([1]; BMMs exposed to LPS, pre-treatment with SIK inhibitor 10 nM): decreased

CC(C)NCC(O)COc1cccc2ccccc12 (stereo not shown) [propranolol]
leptin-induced HDAC4 de-phosphorylation in WAT ([2]; leptin plus propranolol): propranolol-sensitive | leptin-induced rise in cAMP ([2]; ob/ob mice, leptin plus β adrenergic antagonist): blocked

pertussis toxin
cytokine gene expression [1]: lowered

COc1ccc(C2CNC(=O)C2)cc1OC1CCCC1 (stereo not shown) [Rolipram]
glucose tolerance and insulin sensitivity in HDAC4 MKO ([3]; HDAC4 MKO littermates on HFD): not | glucose tolerance and insulin sensitivity ([3]; wild-type mice on HFD): improved | effect on LPS-induced cytokine release (circulating TNFα, IL12β) ([4]; C57BL/6J mice, LPS 30 mg/kg, Rolipram 5 mg/kg co-administered): blocked | effect on survival after LPS in HDAC4 MKO mice ([4]; HDAC4 MKO littermates, LPS plus rolipram): modest effects | effect on survival after LPS ([4]; LPS 30 mg/kg, Rolipram 5 mg/kg co-administered): blocked | effect on survival after LPS ([4]; LPS 30 mg/kg, Rolipram 5 mg/kg co-administered, listed as rolipram): improved survival

CCCCC[C@H](O)/C=C/[C@H]1[C@H](O)CC(=O)[C@@H]1C/C=C\CCCC(=O)O [PGE2, Prostaglandin E2]
pro-inflammatory cytokine mRNA amounts and secretion ([1]; cultured BMMs exposed to LPS): reduced | IL10 mRNA and protein secretion ([1]; wild-type BMMs, LPS plus PGE2): upregulated | activation of P38 or JNK, phosphorylation of IκBα or p65 in response to LPS (NF-κB subunit p65; BMMs, LPS plus PGE2): did not interfere | p65 recruitment to the TNFα and IL12β promoters (NF-κB subunit p65; BMMs, LPS plus PGE2 compared to LPS alone): reduced | amounts of acetylated p65 in HDAC4 MKO cells (NF-κB subunit p65; HDAC4 MKO BMMs, LPS plus PGE2): did not reduce | LPS-dependent increases in p65 and histone H4K5 acetylation over cytokine promoters (NF-κB subunit p65; wild-type BMMs, LPS plus PGE2): blocked | HDAC4 dephosphorylation at Ser246 and nuclear translocation (HDAC4): triggered

CC(/C=C/C(=O)NO)=C\[C@@H](C)C(=O)c1ccc(N(C)C)cc1 [Trichostatin A, (2E,4E,6R)-7-(4-(Dimethylamino)phenyl)-N-hydroxy-4,6-dimethyl-7-oxo-2,4-heptadienamide]
Ki (histone deacetylase): ~3.4 nM

B1: leptin: hormone injected into ob/ob mice; triggers catecholamine-dependent increases in cAMP signaling (protein, UniProt P41160 22-167, looked up)
Leptin: VPIQKVQDDTKTLIKTIVTRINDISHTQSVSAKQRVTGLDFIPGLHPILSLSKMDQTLAVYQQVLTSLPSQNVLQIANDLENLRDLLHLLAFSKSCSLPQTSGLQKPESLDGVLEASLYSTEVVALSRLQGSLQDILQQLDVSPEC
HDAC4 de-phosphorylation in WAT ([2]; leptin administration): promoted | nuclear translocation of HDAC4 in adipose resident macrophages ([2]; leptin administration): stimulated | circulating concentrations of norepinephrine and cAMP content in epididymal fat pads ([2]; ob/ob mice, leptin injection): upregulated
